The supplement of paper PMC11061612

Columns and labels:
Assay in all cases: Bliss excess, mean over the matrix (fraction); higher = more synergy
[1] = test system: NCI-H520 (Squamous Cell Lung Carcinoma)
Summary of the method: (§1)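 After 24 hours at 37°C and 5% CO2 in 1536-well plates, cells in DMEM/F12 or RPMI plus 10% FBS received two-drug dose matrices for 72 hours. Viability came from CellTiter-Glo 2.0 luminescence and was scaled as inhibition, anchored at 0 by vehicle wells and at 1 by blank wells. Combination Emax is taken as the second-highest inhibition in the matrix, and Bliss excess as the observed combination effect less EA + EB − EA·EB, with EA and EB the single-agent effects.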

[2] = test system: ESO51 (Esophageal Adenocarcinoma)
Summary of the method: as §1

[3] = test system: HCC1187 (Breast Carcinoma)
Summary of the method: as §1

[4] = test system: NCI-H661 (Non-Small Cell Lung Carcinoma)
Summary of the method: as §1

[5] = test system: KY821 (Acute Myeloid Leukemia)
Summary of the method: as §1

[6] = test system: 8505C (Thyroid Gland Carcinoma)
Summary of the method: as §1

G-361 (Melanoma) = test system: G-361 (Melanoma)
Summary of the method: as §1

NCI-H2731 (Mesothelioma) = test system: NCI-H2731 (Mesothelioma)
Summary of the method: as §1

[7] = test system: CW-2 (Colorectal Carcinoma)
Summary of the method: as §1

[8] = test system: SUP-B15 (B-Lymphoblastic Leukemia)
Summary of the method: as §1

[9] = test system: SNU-398 (Hepatocellular Carcinoma)
Summary of the method: as §1

[10] = test system: NCI-H526 (Small Cell Lung Carcinoma)
Summary of the method: as §1

[11] = test system: KP-3 (Pancreatic Carcinoma)
Summary of the method: as §1

[12] = test system: CHSA8926 (Chondrosarcoma)
Summary of the method: as §1

[13] = test system: SK-GT-2 (Gastric Carcinoma)
Summary of the method: as §1

[14] = test system: NCI-H929 (Plasma Cell Myeloma)
Summary of the method: as §1

[15] = test system: ST486 (Burkitt's Lymphoma)
Summary of the method: as §1

[16] = test system: NCI-H3122 (Lung Adenocarcinoma)
Summary of the method: as §1

[17] = test system: KMS-12-BM (Plasma Cell Myeloma)
Summary of the method: as §1

[18] = test system: PC-3 (Prostate Carcinoma)
Summary of the method: as §1

Row | Compound | Bliss excess [1] | Bliss excess [2] | Bliss excess [3] | Bliss excess [4] | Bliss excess [5] | Bliss excess [6] | Bliss excess (G-361 (Melanoma)) | Bliss excess (NCI-H2731 (Mesothelioma)) | Bliss excess [7] | Bliss excess [8] | Bliss excess [9] | Bliss excess [10] | Bliss excess [11] | Bliss excess [12] | Bliss excess [13] | Bliss excess [14] | Bliss excess [15] | Bliss excess [16] | Bliss excess [17] | Bliss excess [18]
1 | Cc1cc2ncnn2cc1Nc1ncc2c(n1)n(C1CCOCC1)c(=O)n2C [AZD7648] + O=C(c1cc(Cc2n[nH]c(=O)c3ccccc23)ccc1F)N1CCN(C(=O)C2CC2)CC1 [Olaparib] (first compound max 10 µM, 7x7, partner max 10 µM) | -0.0742 | -0.0056 | -0.0092 | -0.0373 | -0.0003 | -0.0202 | -0.043 | -0.069 | -0.0201 | 0.0239 | -0.0381 | -0.0129 | -0.0409 | -0.0511 | -0.0297 | -0.0192 | 0.0048 | -0.0505 | 0.027 | -0.0263
2 | NC1(C(=O)N[C@@H](CCO)c2ccc(Cl)cc2)CCN(c2ncnc3[nH]ccc23)CC1 [Capivasertib] + CC(=O)c1c(C)c2cnc(Nc3ccc(N4CCNCC4)cn3)nc2n(C2CCCC2)c1=O [Palbociclib] (first compound max 10 µM, 7x7, partner max 10 µM) | 0.0018 | -0.0475 | 0.0279 | 0.0204 | -0.0078 | -0.0475 | -0.0381 | -0.0008 | 0.0329 | -0.007 | -0.057 | -0.0331 | -0.0372 | -0.0171 | 0.0012 | -0.0066 | -0.0616 | 0.0266 | 0.0977 | 0.0068
3 | NC1(C(=O)N[C@@H](CCO)c2ccc(Cl)cc2)CCN(c2ncnc3[nH]ccc23)CC1 [Capivasertib] + CC(C)n1c(=O)n(C)c2cnc3cc(F)c(-c4ccc(OCCCN5CCCCC5)nc4)cc3c21 [AZD1390] (first compound max 10 µM, 7x7, partner max 0.3 µM) | -0.0559 | -0.0416 | -0.0424 | -0.0692 | -0.021 | -0.0376 | -0.0344 | -0.0169 | -0.0469 | -0.0059 | -0.0579 | 0.0062 | -0.0596 | -0.111 | -0.0342 | -0.0187 | -0.0363 | -0.0304 | -0.0274 | -0.0345
4 | NC1(C(=O)N[C@@H](CCO)c2ccc(Cl)cc2)CCN(c2ncnc3[nH]ccc23)CC1 [Capivasertib] + CCN(CCO)CCCOc1ccc2c(Nc3cc(CC(=O)Nc4cccc(F)c4)[nH]n3)ncnc2c1 [AZD2811] (first compound max 10 µM, 7x7, partner max 1 µM) | -0.004 | -0.0363 | -0.0597 | -0.0058 | 0.052 | 0.0134 | 0.0426 | 0.0438 | -0.0348 | -0.103 | 0.0216 | -0.0052 | -0.03 | -0.0687 | -0.0239 | 0.025 | -0.0396 | -0.0428 | 0.0502 | 0.0151
5 | NC1(C(=O)N[C@@H](CCO)c2ccc(Cl)cc2)CCN(c2ncnc3[nH]ccc23)CC1 [Capivasertib] + COc1nnc2ccc(N3CCC(c4ccc(OCCN5CCN(C)C(=O)[C@H]5C)cc4)CC3)nn12 [AZD5153] (first compound max 10 µM, 7x7, partner max 1 µM) | 0.0497 | 0.0603 | 0.0491 | 0.0687 | -0.0351 | 0.0008 | 0.0218 | -0.0012 | 0.0459 | 0.0274 | 0.0733 | -0.0213 | 0.0226 | 0.0617 | 0.0448 | -0.008 | -0.0552 | -0.0131 | 0.0409 | -0.0242
6 | NC1(C(=O)N[C@@H](CCO)c2ccc(Cl)cc2)CCN(c2ncnc3[nH]ccc23)CC1 [Capivasertib] + C[C@@H]1COCCN1C2=NC(=NC(=C2)C3(CC3)[S@](=N)(=O)C)C4=C5C=CNC5=NC=C4 [AZD6738] (first compound max 10 µM, 7x7, partner max 10 µM) | -0.0357 | -0.0208 | -0.0292 | -0.0645 | -0.0558 | -0.0138 | -0.0397 | -0.0267 | -0.0298 | 0.0044 | -0.0748 | -0.0193 | -0.0499 | -0.0179 | -0.001 | -0.0009 | -0.0785 | -0.0758 | 0.0398 | -0.0389
7 | NC1(C(=O)N[C@@H](CCO)c2ccc(Cl)cc2)CCN(c2ncnc3[nH]ccc23)CC1 [Capivasertib] + Cn1cnc2c(F)c(Nc3ccc(Br)cc3Cl)c(C(=O)NOCCO)cc21 [Selumetinib] (first compound max 10 µM, 7x7, partner max 10 µM) | -0.015 | 0.0417 | 0.0534 | -0.0074 | 0.0177 | 0.0302 | 0.0429 | -0.0115 | -0.0035 | 0.0854 | 0.0287 | 0.0296 | 0.0087 | 0.034 | 0.063 | 0.0041 | 0.0217 | 0.092 | 0.0441 | -0.0419
8 | Cc1nc(Nc2ncc(C(=O)Nc3c(C)cccc3Cl)s2)cc(N2CCN(CCO)CC2)n1 [Dasatinib] + CC(=O)Nc1cccc(-n2c(=O)n(C3CC3)c(=O)c3c(Nc4ccc(I)cc4F)n(C)c(=O)c(C)c32)c1 [Trametinib] (first compound max 2 µM, 7x7, partner max 1 µM) | -0.0488 | -0.0066 | -0.0367 | -0.0528 | -0.144 | 0.0809 | -0.0282 | 0.0298 | 0.0129 | -0.0562 | -0.0842 | -0.0323 | 0.0304 | -0.194 | -0.0013 | -0.075 | -0.0987 | -0.0651 | -0.0046 | -0.0759
9 | COc1cccc2c1C(=O)c1c(O)c3c(c(O)c1C2=O)C[C@@](O)(C(=O)CO)C[C@@H]3O[C@H]1C[C@H](N)[C@H](O)[C@H](C)O1 [Doxorubicin] + Cc1cc2ncnn2cc1Nc1ncc2c(n1)n(C1CCOCC1)c(=O)n2C [AZD7648] (first compound max 1 µM, 7x7, partner max 10 µM) | 0.0158 | 0.0291 | 0.114 | 0.0465 | 0.0822 | 0.0859 | 0.0791 | 0.0506 | -0.0002 | 0.153 | 0.056 | 0.0586 | -0.0405 | -0.0053 | -0.0051 | 0.126 | 0.0895 | 0.031 | 0.0946 | 0.0175
10 | COc1cc2ncnc(Nc3ccc(F)c(Cl)c3)c2cc1OCCCN1CCOCC1 [Gefitinib] + CC(C)n1c(=O)n(C)c2cnc3cc(F)c(-c4ccc(OCCCN5CCCCC5)nc4)cc3c21 [AZD1390] (first compound max 10 µM, 7x7, partner max 0.3 µM) | -0.0477 | -0.0488 | -0.04 | -0.097 | -0.0553 | -0.0691 | -0.0718 | -0.0434 | -0.031 | -0.0673 | -0.0627 | -0.0342 | -0.074 | -0.113 | -0.0382 | -0.0092 | -0.0874 | -0.0775 | -0.0267 | -0.0643
11 | CS(=O)(=O)CCNCc1ccc(-c2ccc3ncnc(Nc4ccc(OCc5cccc(F)c5)c(Cl)c4)c3c2)o1 [Lapatinib] + C[C@@H](Oc1cc(-c2cnn(C3CCNCC3)c2)cnc1N)c1c(Cl)ccc(F)c1Cl [Crizotinib] (first compound max 10 µM, 7x7, partner max 10 µM) | -0.0975 | 0.0885 | -0.0156 | -0.0252 | 0.0312 | -0.0441 | -0.0416 | -0.0456 | -0.0146 | 0.024 | -0.0451 | 0.0069 | -0.0234 | -0.0231 | -0.0154 | -0.062 | -0.0366 | 0.0001 | 0.0256 | -0.0174
12 | CC(=O)c1c(C)c2cnc(Nc3ccc(N4CCNCC4)cn3)nc2n(C2CCCC2)c1=O [Palbociclib] + CC1(C)CCC(CN2CCN(c3ccc(C(=O)NS(=O)(=O)c4ccc(NCC5CCOCC5)c([N+](=O)[O-])c4)c(Oc4cnc5[nH]ccc5c4)c3)CC2)=C(c2ccc(Cl)cc2)C1 [Venetoclax] (first compound max 10 µM, 7x7, partner max 1 µM) | -0.0209 | -0.0078 | -0.0079 | -0.0593 | 0.0485 | -0.0584 | 0.016 | -0.0002 | 0.0067 | -0.0176 | 0.0232 | -0.0033 | -0.0533 | -0.0232 | -0.0342 | -0.112 | -0.0755 | -0.0335 | 0.0637 | -0.0582
13 | CC(=O)c1c(C)c2cnc(Nc3ccc(N4CCNCC4)cn3)nc2n(C2CCCC2)c1=O [Palbociclib] + Cc1c2c(nn1C)CSCc1cc(n(C)n1)CSc1cc(c3ccccc3c1)OCCCc1c(C(=O)O)n(C)c3c-2c(Cl)ccc13 [AZD5991] (first compound max 10 µM, 7x7, partner max 1 µM) | 0.0024 | -0.0192 | 0.0023 | -0.0443 | -0.0372 | -0.175 | -0.0464 | -0.0484 | -0.0111 | -0.207 | 0.0128 | 0.0026 | -0.0436 | -0.0807 | -0.021 | 0.0099 | -0.0457 | -0.0217 | 0.035 | -0.0501
14 | CC(=O)c1c(C)c2cnc(Nc3ccc(N4CCNCC4)cn3)nc2n(C2CCCC2)c1=O [Palbociclib] + Cn1cnc2c(F)c(Nc3ccc(Br)cc3Cl)c(C(=O)NOCCO)cc21 [Selumetinib] (first compound max 10 µM, 7x7, partner max 10 µM) | -0.054 | 0.0041 | -0.0142 | -0.0533 | 0.0803 | -0.0377 | -0.0785 | -0.0341 | 0.0099 | 0.0147 | -0.0388 | -0.0213 | -0.0328 | -0.0697 | -0.0175 | 0.0643 | 0.151 | -0.0306 | 0.0219 | -0.0627
15 | COc1cccc(OCCCN)c1-c1cc(Nc2cnc(C#N)cn2)n[nH]1 [Prexasertib] + C=CCn1c(=O)c2cnc(Nc3ccc(N4CCN(C)CC4)cc3)nc2n1-c1cccc(C(C)(C)O)n1 [AZD1775] (first compound max 1 µM, partner max 1 µM) | 0.0421 | -0.0153 | 0.102 | -0.0287 | 0.063 | 0.0849 | 0.0806 | 0.0338 | 0.0224 | 0.0224 | 0.0254 | 0.0502 | -0.0138 | -0.0416 | 0.0286 | 0.15 | 0.0276 | 0.124 | 0.0595 | 0.0469
